From patent US12171229B2, “Heteroaryl-triazole and heteroaryl-tetrazole compounds as pesticides” (BAYER AKTIENGESELLSCHAFT, priority 2018, dated 2024) come the findings set out here.

Common to all, as to format: in vivo
The subject of test [1] is Diabrotica balteata. Description: Diabrotica balteata spray test. The following applies: Diabrotica balteata, in Triticum aestivum, 168 h, after 7 days, larvae on wheat seeds, read-out: efficacy (seedlings grown up); for pest or weed control at 80 µg/disc, 250 g/ha: 80 μg/well (=250 g/ha); for pest or weed control at 160 µg/disc, 500 g/ha: 160 μg/well (=500 g/ha). Summed up:
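Germinated wheat seeds (5 per well, 1 day on agar) sprayed with compound diluted in water containing 1000 ppm emulsifier, then infested with 10–20 D. balteata larvae. Efficacy scored after 7 days: 100% = seedlings like untreated uninfested control, 0% = no seedlings grown.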

In test [2] the test system is Ctenocephalides felis. Description: Ctenocephalides felis in-vitro contact test, adult cat flea. The following applies: 5 μg/cm^2 (=500 g/ha), after 48 hours, adult cat fleas, read-out: efficacy (fleas dead or moribund). The gist of the method:
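Compound in acetone coated onto inner walls of glass tubes, e.g. 900 ppm giving 5 μg/cm². After drying, 5–10 adult C. felis added per tube and held at room temperature. At 48 h, fleas unable to escape a 45–50 °C heating plate within 5 min scored dead/moribund, giving % efficacy.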

Test [3] deals with Culex quinquefasciatus strain P00. Description: Culex quinquefasciatus test (CULXFA surface treatment & contact assay). The note with it: 24 hours after contact, read-out: efficacy (mortality); for mortality at 4 mg/m2: surface concentration 4 mg/m^2, exposure 30 minutes; for mortality at 20 mg/m2: surface concentration 20 mg/m^2, exposure 30 minutes. Summed up: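 Compound dissolved in acetone (2 mg/ml) with 2000 ppm rapeseed oil methyl ester, applied to glazed tile and dried; adult C. quinquefasciatus strain P00 exposed to surface for 30 minutes. Mortality (%) scored 24 hours after contact.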

In test [4] the test system is Musca domestica strain WHO-N. Description: Musca domestica test (MUSCDO surface treatment & contact assay). The following applies: 24 hours after contact, read-out: efficacy (mortality); for mortality at 4 mg/m2: surface concentration 4 mg/m^2, exposure 30 minutes; for mortality at 20 mg/m2: surface concentration 20 mg/m^2, exposure 30 minutes. The gist of the method: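 Adult WHO-N flies exposed for 30 minutes on a glazed tile coated with compound dissolved in acetone (2 mg/ml) with 2000 ppm rapeseed oil methyl ester, acetone evaporated. Percent mortality read 24 hours after contact.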

Test [5] deals with Aedes aegypti strain MONHEIM. Description: Aedes aegypti test (AEDSAE surface treatment & contact assay). The following applies: 24 hours after contact, read-out: efficacy (mortality); for mortality at 4 mg/m2: surface concentration 4 mg/m^2, exposure 30 minutes; for mortality at 20 mg/m2: surface concentration 20 mg/m^2, exposure 30 minutes. Summed up:
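Compound dissolved in acetone (2 mg/ml) with 2000 ppm rapeseed oil methyl ester, applied to glazed tile and dried; adult strain MONHEIM mosquitoes exposed 30 minutes. Percent mortality scored 24 hours after contact.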

For test [6], the system named is Boophilus microplus. Description: Boophilus microplus injection test. The note with it: Rhipicephalus microplus, 168 h; 20 μg/animal injected into the abdomen; adult engorged female ticks; egg deposition after 7 days; read-out: efficacy (infertile eggs). The gist of the method:
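Five engorged adult female ticks received a 1 μl abdominal injection of compound in DMSO. They were then held in a climate chamber, with egg deposition checked after 7 days. Unclear eggs were kept until hatching at about 42 days, and efficacy was scored as the percentage of infertile eggs.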

Test [7] has as its system Ctenocephalides felis. As to the kind of experiment: Ctenocephalides felis oral test. The following applies: 48 h, 100 ppm in cattle blood, after 2 days, adult unfed cat fleas. Summed up:
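About 20 unfed adult cat fleas feed through parafilm on cattle blood dosed with compound from a DMSO stock. Blood chamber at 37° C, fleas at room temperature. Percent mortality scored after 2 days.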

Test [8] concerns Nezara viridula. Description: Nezara viridula spray test. The note with it: 96 h, after 4 days, larvae on barley plants. Summed up: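 Barley plants infested with Nezara viridula larvae were sprayed with compound diluted in water containing 1000 ppm emulsifier. Percent mortality was scored 4 days later, where 100% means all bugs killed and 0% none.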

In the case of `C[C@H](NC(=O)c1cc(Cl)cc(Cl)c1)c1ncnn1-c1ccc(C#N)cn1` [Example I-047], the pest or weed control at 80 µg/disc, 250 g/ha in test [1] was 100%. The pest or weed control at 160 µg/disc, 500 g/ha in test [1] was 100%. Besides, in test [2], the pest or weed control at 5 µg/cm2 was found to be 100%. The mortality at 4 mg/m2 in test [3], in test [4] and in test [5] was 90 to 100% each time. Also, the mortality at 20 mg/m2 in test [3], in test [4] and in test [5] was 90 to 100% each time. Moreover, the pest or weed control at 0.02 mg in test [6] worked out at 100%. Besides, the mortality at 100 ppm in test [7] was determined as 100%. The compound further yielded a mortality at 500 g/ha in test [8] of 100%.
In the case of `C[C@H](NC(=O)c1cc(Cl)cc(S(F)(F)(F)(F)F)c1)c1ncnn1-c1ccc(C#N)cn1` [Example I-048], in test [1], the pest or weed control at 80 µg/disc, 250 g/ha is 100% and the pest or weed control at 160 µg/disc, 500 g/ha was determined as 100%. The pest or weed control at 5 µg/cm2 in test [2] amounted to 100%. Besides, in test [3], the mortality at 4 mg/m2 lay in the range of 90 to 100% and the mortality at 20 mg/m2 lay within 90 to 100%. Besides, in test [4], the mortality at 4 mg/m2 was 90 to 100% and the mortality at 20 mg/m2 was in the range of 90 to 100%. For the same compound, in test [5], the mortality at 4 mg/m2 was 90 to 100% and the mortality at 20 mg/m2 was 90 to 100%. Further, in test [6], the pest or weed control at 0.02 mg worked out at 100%. For the same compound, the mortality at 100 ppm in test [7] came out at 100%. For the same compound, in test [8], the mortality at 100 g/ha amounted to 100% and the mortality at 500 g/ha is 100%.
`Cc1nc([C@H](C)NC(=O)c2cc(Cl)cc(C(F)(F)F)c2)n(-c2ccc(C#N)cn2)n1` [Example I-049]: in test [1], the pest or weed control at 80 µg/disc, 250 g/ha stood at 80% and the pest or weed control at 160 µg/disc, 500 g/ha was 100%. For the same compound, in test [2], the pest or weed control at 5 µg/cm2 was found to be 100%. Moreover, in test [3], the mortality at 4 mg/m2 lay in the range of 90 to 100% and the mortality at 20 mg/m2 lay within 90 to 100%. Further, in test [4], the mortality at 4 mg/m2 is 90 to 100% and the mortality at 20 mg/m2 lay within 90 to 100%. For the same compound, in test [5], the mortality at 4 mg/m2 was in the range of 90 to 100% and the mortality at 20 mg/m2 lay in the range of 90 to 100%. Moreover, in test [6], the pest or weed control at 0.02 mg is 100%. In test [7], the mortality at 100 ppm worked out at 100%. For the same compound, in test [8], the mortality at 100 g/ha worked out at 100% and the mortality at 500 g/ha stood at 100%.
Regarding `C[C@H](NC(=O)c1cc(C(F)(F)F)cc(C(F)(F)F)c1)c1ncnn1-c1ccc(C#N)cn1` [Example I-052], in test [1], the pest or weed control at 80 µg/disc, 250 g/ha was 100% and the pest or weed control at 160 µg/disc, 500 g/ha is 100%. Also, the pest or weed control at 5 µg/cm2 in test [2] was found to be 90%. In test [3], the mortality at 4 mg/m2 was 90 to 100% and the mortality at 20 mg/m2 was 90 to 100%. Further, in test [4], the mortality at 4 mg/m2 was 90 to 100% and the mortality at 20 mg/m2 is 90 to 100%. Further, in test [5], the mortality at 4 mg/m2 fell in the range of 90 to 100% and the mortality at 20 mg/m2 lay within 90 to 100%. The pest or weed control at 0.02 mg in test [6] is 100%. Further, the mortality at 100 ppm in test [7] turned out to be 100%. Besides, in test [8], the mortality at 100 g/ha turned out to be 100% and the mortality at 500 g/ha worked out at 100%.
Take `Cc1nc([C@H](C)NC(=O)c2cc(C(F)(F)F)cc(C(F)(F)F)c2)n(-c2ccc(C#N)cn2)n1` [Example I-056]: in test [1], the pest or weed control at 80 µg/disc, 250 g/ha is 100% and the pest or weed control at 160 µg/disc, 500 g/ha turned out to be 100%. Also, in test [2], the pest or weed control at 5 µg/cm2 stood at 100%. For the same compound, in test [3], the mortality at 4 mg/m2 is 90 to 100% and the mortality at 20 mg/m2 lay within 90 to 100%. Besides, in test [4], the mortality at 4 mg/m2 was in the range of 90 to 100% and the mortality at 20 mg/m2 fell in the range of 90 to 100%. Also, in test [5], the mortality at 4 mg/m2 lay within 90 to 100% and the mortality at 20 mg/m2 lay in the range of 90 to 100%. Further, in test [6], the pest or weed control at 0.02 mg turned out to be 100%. Also, in test [7], the mortality at 100 ppm is 100%. In test [8], the mortality at 100 g/ha was found to be 100% and the mortality at 500 g/ha is 100%.
